Measurements taken from patent US20080312300A1, “Processes for the Preparation of Stable Polymorphic Form I of Ritonavir” (priority 2005, published 2008).

Test: Stability study on storage (polymorphic conversion followed by XRD)
Assay type: physicochemical
Protocol: A first aspect of the present invention provides stable polymorphic Form I of ritonavir having no tendency to convert to any other polymorphic form. […] The X-Ray powdered Diffraction (XRPD) pattern of stable Form I of ritonavir is provided in FIGS. 1a and 2a of the drawing.
(XRD pattern of the title compound stored at 25° C. after 3 months is depicted in FIG. 3).

stability of polymorphic form upon storage (prepared as per prior art process, tendency to convert to other forms, especially Form II)	Structure (SMILES)	conversion in the polymorphic form on storage (stored at 25° C. for 3 months, XRD pattern (FIG. 3))
not stable	CC(C)c1nc(CN(C)C(=O)N[C@H](C(=O)N[C@@H](Cc2ccccc2)C[C@H](O)[C@H](Cc2ccccc2)NC(=O)OCc2cncs2)C(C)C)cs1 (single isomer, unassigned) [Form I of ritonavir, [5S-(5R*,8R*,10R*,11R*)]-10-Hydroxy-2-methyl-5-(1-methylethyl)-1-[2-(1-methylethyl)-4-thiazolyl]-3,6-dioxo-8,11-bis(phenylmethyl)-2,4,7,12-tetraazamidecan-13-oic acid, 5-thiazolylmethyl ester]	–
–	CC(C)c1nc(CN(C)C(=O)N[C@H](C(=O)N[C@@H](Cc2ccccc2)C[C@H](O)[C@H](Cc2ccccc2)NC(=O)OCc2cncs2)C(C)C)cs1 (relative stereo) [Example 2, [5S-(5R*,8R*,10R*,11R*)]-10-Hydroxy-2-methyl-5-(1-methylethyl)-1-[2-(1-methylethyl)-4-thiazolyl]-3,6-dioxo-8,11-bis(phenylmethyl)-2,4,7,12-tetraazamidecan-13-oic acid, 5-thiazolylmethyl ester]	no conversion in the polymorphic form was observed
